The text below walks through data of ChEMBL document CHEMBL1150795, “Sultam thiourea inhibition of West Nile virus” (Antimicrob Agents Chemother, 2007).

Calls of active or inactive are those of the source. The calls are words filed in the database; no cut-off is given here.

Data set [1] relates to Japanese encephalitis virus. The experiment in a line: Antiviral activity against Japanese encephalitis virus SA14-2-8 infected in african green monkey Vero cells assessed as reduction of virus yield relative to control. It is filed as functional, organism-based.
Data set [2] in a line: Cytotoxicity against african green monkey Vero cells after 48 hrs by MTS method. Type of data set: cell-based. The settings on record: chlorocebus sabaeus. A general note: Formazan colour is commonly taken as a measure of viable cells.
The subject of data set [3] is West Nile virus. The experiment in a line: Antiviral activity against West Nile virus NY 1999 infected in african green monkey Vero cells assessed as reduction of virus yield relative to control. It is filed as functional, organism-based.
Data set [4] has as its system West Nile virus. Description: Antiviral activity against West Nile virus NY 1999 infected in african green monkey Vero cells assessed as reduction of viral E protein level by immunoblot method. It is filed as functional, organism-based.
Data set [5] has as its system West Nile virus. Description: Antiviral activity against West Nile virus NY 1999 infected in african green monkey Vero cells assessed as reduction of virus yield after 5 days post infection at 23 uM relative to control. Type of data set: functional.
For the next data set, the system named is Vero. Description: Cytotoxicity against african green monkey Vero cells at 23 uM after 48 hrs by MTS method. It is filed as cell-based. The conditions noted are these: chlorocebus sabaeus.
The subject of data set [6] is West Nile virus. The experiment in a line: Antiviral activity against West Nile virus in BHK cells assessed as reduction of viral replicon after 48 hrs by luciferase based reporter gene assay relative to control. It is filed as functional. (In general: Replicon systems follow genome replication, usually without infectious particles.)
In data set [7] the test system is Human immunodeficiency virus 1. Description: Antiviral activity against HIV1 in 293 cells assessed as reduction of viral replicon after 48 hrs by luciferase based reporter gene assay relative to control. It is filed as functional, organism-based. The settings on record: HEK293.
The test system of data set [8] is West Nile virus. The experiment in a line: Antiviral activity against West Nile virus NY 1999 infected in african green monkey Vero cells assessed as reduction of virus yield administered 2 hrs postinfection. It is filed as functional, organism-based.
The test system of another data set is Prospect Hill virus. The experiment in a line: Antiviral activity against Prospect Hill Hantavirus. The settings on record: Orthohantavirus prospectense. It is filed as functional, organism-based.
The next data set concerns Human adenovirus 5. Description: Antiviral activity against human adenovirus 5. It is filed as functional, organism-based.
Data set [9] deals with West Nile virus. The experiment in a line: Antiviral activity against West Nile virus NY 1999 infected in african green monkey Vero cells assessed as reduction of virus yield after 5 days post infection at 2.3 uM relative to control. Type of data set: functional.
Data set [10] relates to West Nile virus. Description: Antiviral activity against West Nile virus NY 1999 infected in african green monkey Vero cells assessed as reduction of viral E protein level by immunofluorescence method. It is filed as functional, organism-based.
The test system of data set [11] is Human immunodeficiency virus 1. Description: Antiviral activity against HIV1. Type of data set: functional, organism-based.
A short description of data set [12]: Selectivity index, ratio of CC50 for african green monkey Vero cells to EC50 for West Nile virus NY 1999. The settings on record: read-out: Ratio CC50/EC50. It is filed as toxicity, cell-based.
Data set [13] relates to West Nile virus. Description: Antiviral activity against West Nile virus NY 1999 infected in african green monkey Vero cells assessed as reduction of viral RNA level by RT-PCR relative to control. It is filed as functional.
The nature of data set [14]: Cytotoxicity against african green monkey Vero cells by trypan blue exclusion assay. Type of data set: cell-based. The conditions noted are these: chlorocebus sabaeus.

For the compound `CC(C)N(C(=S)/N=C1\SCS(=O)(=O)N1c1ccccc1)C(C)C`, the EC50 (as a rule, the midpoint of the concentration-response curve) was 8 µM in data set [1] and 80 µM in the data set on West Nile virus [3]. The CC50 (commonly the concentration giving 50% cytotoxicity) at 48 h in data set [2] is over 80 µM.
As to `O=S1(=O)CS/C(=N\C(=S)N(c2ccccc2)c2ccccc2)N1c1ccccc1`, the result (in the data set with West Nile virus [4]; in the data set with West Nile virus [8]; in the data set on Prospect Hill virus; in the data set on Human adenovirus 5; with West Nile virus [10]; in [11]) was Active. The “fold change (FC)” value is 100 in the data set with West Nile virus [5], over 20 with West Nile virus [6] and 100 in the data set on West Nile virus [9]. For the same compound, the Activity result is listed as “Non-toxic” in the data set with Vero and over 100 in the data set with West Nile virus [13]. The result in data set [7] was inactive. The EC50 in data set [1] turned out to be 7 µM; in the data set with West Nile virus [3], 0.7 µM. For the same compound, the CC50 at 48 h in data set [2] is over 70 µM. Further, in data set [12], the selectivity ratio was over 100. The same compound yielded a CC50 in data set [14] of over 70 µM.
Turning to `O=S1(=O)CS/C(=N\C(=S)N(Cc2ccccc2)Cc2ccccc2)N1c1ccccc1`, the EC50 in data set [1] was found to be 65 µM; with West Nile virus [3] it was 22 µM. This compound also showed a cytotoxic concentration (CC50) at 48 h in [2] of 65 µM.
For the compound `CC(C)N(C(=S)/N=C1\SC(C)S(=O)(=O)N1C)C(C)C` (stereo unspecified), the EC50 (in data set [1]; with West Nile virus [3]) was 30 µM throughout. In data set [2], this compound displayed a CC50 at 48 h of 90 µM.
